Results reported in article PMC5908784, “Extracellular loops 2 and 3 of the calcitonin receptor selectively modify agonist binding and efficacy” (Biochemical Pharmacology, 2018).
Residue numbers refer to the chain shown, from its start. Where a SMILES comes first, the peptide text is derived from it. Bridges are numbered along the chain shown (N, C = ends).

Legend:
Experiment in all cases: cAMP accumulation
Assay type in all cases: cell-based
Details in all cases: mean ± S.E.M.; for Emax: cAMP maximal response, SEM; for EC50: cAMP, CV1-FlpIn cells, 30 min, IBMX
hCTR N365A = biological target: T1, hCTR N365A (Homo sapiens, UniProt P30988, N365A)
T1 construct: c-Myc (N); expressed in transfected cells
T1 sequence (P30988 25-474 N365A): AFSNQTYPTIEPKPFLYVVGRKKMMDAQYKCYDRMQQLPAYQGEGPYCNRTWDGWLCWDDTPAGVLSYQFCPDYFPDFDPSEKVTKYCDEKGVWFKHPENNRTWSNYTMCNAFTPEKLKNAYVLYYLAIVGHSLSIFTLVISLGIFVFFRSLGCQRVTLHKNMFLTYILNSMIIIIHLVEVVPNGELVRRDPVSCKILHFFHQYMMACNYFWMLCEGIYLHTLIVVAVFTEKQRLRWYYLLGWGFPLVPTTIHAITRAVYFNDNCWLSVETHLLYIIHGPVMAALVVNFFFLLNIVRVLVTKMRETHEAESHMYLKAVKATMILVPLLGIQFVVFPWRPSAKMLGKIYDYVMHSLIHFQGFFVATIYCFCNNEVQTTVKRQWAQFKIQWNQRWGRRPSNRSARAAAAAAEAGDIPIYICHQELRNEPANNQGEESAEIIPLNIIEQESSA
How it was run: (§1)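 For each mutant, cAMP generated during a 30 min ligand exposure with IBMX is reported as a fraction of the 100 μM forskolin maximum. Cells were ethanol-extracted and dried at room temperature prior to measurement.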

hCTR Y284A = biological target: T2, hCTR Y284A (Homo sapiens, UniProt P30988, Y284A)
T2 construct: expressed in transfected cells
T2 sequence (P30988 25-474 Y284A): T1 sequence (P30988 25-474 N365A) with Y260A, A341N
How it was run: as §1

hCTR L368A = biological target: T3, hCTR L368A (Homo sapiens, UniProt P30988, L368A)
T3 construct: c-Myc (N); expressed in transfected cells
T3 sequence (P30988 25-474 L368A): T1 sequence (P30988 25-474 N365A) with A341N, L344A
How it was run: as §1

hCTR S292A = biological target: T4, hCTR S292A (Homo sapiens, UniProt P30988, S292A)
T4 construct: expressed in transfected cells
T4 sequence (P30988 25-474 S292A): T1 sequence (P30988 25-474 N365A) with S268A, A341N
How it was run: as §1

hCTR V358A = biological target: T5, hCTR V358A (Homo sapiens, UniProt P30988, V358A)
T5 construct: c-Myc (N); expressed in transfected cells
T5 sequence (P30988 25-474 V358A): T1 sequence (P30988 25-474 N365A) with V334A, A341N
How it was run: as §1

| Structure (SMILES) | Emax (hCTR N365A) [%] | Emax (hCTR Y284A) [%] | Emax (hCTR L368A) [%] | Emax (hCTR S292A) [%] | Emax (hCTR V358A) [%] | EC50 (hCTR N365A) [nM] | EC50 (hCTR Y284A) [nM] | EC50 (hCTR L368A) [nM] | EC50 (hCTR S292A) [nM] | EC50 (hCTR V358A) [nM] |
| --- | --- | --- | --- | --- | --- | --- | --- | --- | --- | --- |
| CC(C)C[C@H](NC(=O)[C@H](CCCCN)NC(=O)CNC(=O)[C@H](CC(C)C)NC(=O)[C@@H](NC(=O)[C@@H]1CSSC[C@H](N)C(=O)N[C@@H](CO)C(=O)N[C@@H](CC(N)=O)C(=O)N[C@@H](CC(C)C)C(=O)N[C@@H](CO)C(=O)N[C@@H]([C@@H](C)O)C(=O)N1)C(C)C)C(=O)N[C@@H](CO)C(=O)N[C@@H](CCC(N)=O)C(=O)N[C@@H](CCC(=O)O)C(=O)N[C@@H](CC(C)C)C(=O)N[C@@H](Cc1c[nH]cn1)C(=O)N[C@@H](CCCCN)C(=O)N[C@@H](CC(C)C)C(=O)N[C@@H](CCC(N)=O)C(=O)N[C@H](C(=O)N[C@@H](Cc1ccc(O)cc1)C(=O)N1CCC[C@H]1C(=O)N[C@@H](CCCNC(=N)N)C(=O)N[C@H](C(=O)N[C@@H](CC(N)=O)C(=O)N[C@H](C(=O)NCC(=O)N[C@@H](CO)C(=O)NCC(=O)N[C@H](C(=O)N1CCC[C@H]1C(N)=O)[C@@H](C)O)[C@@H](C)O)[C@@H](C)O)[C@@H](C)O [sCT] | 94 ± 5 | 111 ± 11 | 75 ± 7 | 119 ± 12 | 139 ± 9 |  |  |  |  |  |
| CC(C)C[C@H](NC(=O)[C@H](CC(N)=O)NC(=O)[C@H](CC(N)=O)NC(=O)[C@H](CO)NC(=O)[C@H](CO)NC(=O)[C@H](CCCNC(=N)N)NC(=O)[C@@H](NC(=O)[C@H](CC(C)C)NC(=O)[C@H](Cc1ccccc1)NC(=O)[C@H](CC(N)=O)NC(=O)[C@H](C)NC(=O)[C@H](CC(C)C)NC(=O)[C@H](CCCNC(=N)N)NC(=O)[C@H](CCC(N)=O)NC(=O)[C@@H](NC(=O)[C@H](C)NC(=O)[C@@H]1CSSC[C@H](NC(=O)[C@@H](N)CCCCN)C(=O)N[C@@H](CC(N)=O)C(=O)N[C@@H]([C@@H](C)O)C(=O)N[C@@H](C)C(=O)N[C@@H]([C@@H](C)O)C(=O)N1)[C@@H](C)O)C(C)C)C(=O)NCC(=O)N1CCC[C@H]1C(=O)N[C@H](C(=O)N[C@@H](CC(C)C)C(=O)N1CCC[C@H]1C(=O)N1CCC[C@H]1C(=O)N[C@H](C(=O)N[C@@H](CC(N)=O)C(=O)N[C@H](C(=O)NCC(=O)N[C@@H](CO)C(=O)N[C@@H](CC(N)=O)C(=O)N[C@H](C(=O)N[C@@H](Cc1ccc(O)cc1)C(N)=O)[C@@H](C)O)C(C)C)[C@@H](C)O)C(C)C [rAmy] | 72 ± 8 | 101 ± 10 | 95 ± 12 | 95 ± 10 | 94 ± 13 |  |  |  |  |  |
| CC[C@H](C)[C@H](NC(=O)[C@H](C)NC(=O)[C@@H](NC(=O)[C@H](CCC(N)=O)NC(=O)[C@@H]1CCCN1C(=O)[C@H](Cc1ccccc1)NC(=O)[C@@H](NC(=O)[C@H](Cc1c[nH]cn1)NC(=O)[C@H](Cc1ccccc1)NC(=O)[C@H](CCCCN)NC(=O)[C@H](CC(N)=O)NC(=O)[C@H](Cc1ccccc1)NC(=O)[C@H](CC(=O)O)NC(=O)[C@H](CCC(N)=O)NC(=O)[C@@H](NC(=O)[C@H](Cc1ccc(O)cc1)NC(=O)[C@@H](NC(=O)CNC(=O)[C@H](CC(C)C)NC(=O)[C@H](CCSC)NC(=O)[C@@H]1CSSC[C@H](N)C(=O)NCC(=O)N[C@@H](CC(N)=O)C(=O)N[C@@H](CC(C)C)C(=O)N[C@@H](CO)C(=O)N[C@@H]([C@@H](C)O)C(=O)N1)[C@@H](C)O)[C@@H](C)O)[C@@H](C)O)[C@@H](C)O)C(=O)NCC(=O)N[C@H](C(=O)NCC(=O)N[C@@H](C)C(=O)N1CCC[C@H]1C(N)=O)C(C)C [hCT] | 96 ± 4 | 103 ± 10 | 70 ± 4 | 135 ± 13 | 98 ± 4 |  |  |  |  |  |
| CC(C)C[C@H](NC(=O)CNC(=O)[C@H](C)NC(=O)[C@H](CC(C)C)NC(=O)[C@H](CCCNC(=N)N)NC(=O)[C@H](Cc1cnc[nH]1)NC(=O)[C@@H](NC(=O)[C@@H](NC(=O)[C@@H]1CSSC[C@H](NC(=O)[C@H](C)N)C(=O)N[C@@H](CC(=O)O)C(=O)N[C@@H]([C@@H](C)O)C(=O)N[C@@H](C)C(=O)N[C@@H]([C@@H](C)O)C(=O)N1)C(C)C)[C@@H](C)O)C(=O)N[C@@H](CC(C)C)C(=O)N[C@@H](CO)C(=O)N[C@@H](CCCNC(=N)N)C(=O)N[C@@H](CO)C(=O)NCC(=O)NCC(=O)N[C@H](C(=O)N[C@H](C(=O)N[C@@H](CCCCN)C(=O)N[C@@H](CC(N)=O)C(=O)N[C@@H](CC(N)=O)C(=O)N[C@@H](Cc1ccccc1)C(=O)N[C@H](C(=O)N1CCC[C@H]1C(=O)N[C@H](C(=O)N[C@@H](CC(N)=O)C(=O)N[C@H](C(=O)NCC(=O)N[C@@H](CO)C(=O)N[C@@H](CCCCN)C(=O)N[C@@H](C)C(=O)N[C@@H](Cc1ccccc1)C(N)=O)C(C)C)[C@@H](C)O)C(C)C)C(C)C)C(C)C [hαCGRP] | 111 ± 13 | 139 ± 22 | 78 ± 12 | 106 ± 14 | 74 ± 9 | 15.5 | 19.1 | 11.5 | 22.4 | 20.9 |
| CSCC[C@H](NC(=O)CNC(=O)[C@H](CO)NC(=O)[C@H](Cc1ccccc1)NC(=O)[C@H](CCCNC(=N)N)NC(=O)[C@H](Cc1c[nH]cn1)NC(=O)[C@H](Cc1ccccc1)NC(=O)[C@H](CC(N)=O)NC(=O)[C@H](CC(N)=O)NC(=O)[C@H](CC(C)C)NC(=O)[C@H](CC(N)=O)NC(=O)[C@H](CCCNC(=N)N)NC(=O)[C@H](Cc1c[nH]c2ccccc12)NC(=O)[C@H](Cc1ccc(O)cc1)NC(=O)[C@H](C)NC(=O)[C@H](CO)NC(=O)[C@H](CC(C)C)NC(=O)[C@@H](NC(=O)[C@@H]1CSSC[C@H](N)C(=O)N[C@@H](CO)C(=O)N[C@@H](CC(N)=O)C(=O)N[C@@H](CC(C)C)C(=O)N[C@@H](CO)C(=O)N[C@@H]([C@@H](C)O)C(=O)N1)C(C)C)C(=O)NCC(=O)N[C@@H](Cc1ccccc1)C(=O)NCC(=O)N1CCC[C@H]1C(=O)N[C@@H](CCC(=O)O)C(=O)N[C@H](C(=O)N1CCC[C@H]1C(N)=O)[C@@H](C)O [pCT] (H-CSNLSTCVLSAYWRNLNNFHRFSGMGFGPETP-NH2; disulfide 1-7) | 95 ± 5 | 104 ± 9 | 96 ± 6 | 131 ± 9 | 140 ± 15 | 0.0316 | 0.0631 | 0.0316 | 0.0316 | 0.0316 |
